{"source": "patent US11273172B2", "about": "“Synergistic combination of oligonucleotides and chemotherapeutic for treating cancer” (THE BOARD OF TRUSTEES OF THE UNIVERSITY OF ILLINOIS, priority 2017, dated 2022)", "experiment_in_all_cases": "MTT cell death assay, chemotherapeutic with and without MADD siRNA knockdown", "type_in_all_cases": "cell-based", "key": {"H2227 lung cancer cells": {"system": "H2227 lung cancer cells", "conditions": "siRNA 10 nM", "method": "(§1) Cells are cultured and maintained at 37° C. in a humidified atmosphere containing 5% CO2 as described above. On Day 0, Cells are seeded in […] tissue culture dishes (Corning; Cat Number: 353003) to attain 60-70% confluence. In parallel, cells are also seeded in one 96-well plate (Corning; Cat number: 353072) for analysis of survival before reseeding. After 12-18 hours (Day 1), cells are transfected with Scramble or MADD siRNA at 10 nM concentration. The sequences of siRNAs (double-stranded) used are:\n(§2) On Day 4, when cells are properly adhered and retained their shape in 96-well plates, drugs are added. All drugs are diluted in complete media on the same day prior to the addition to the cells. In untreated cells, media is replaced with complete media. Two hundred μl volume of media (with or without drugs) is used for the drug treatment assay. Plates are incubated 24 hours, 48 hours and 72 hours at 37° C. in humidified CO2 incubator.\n(§3) An MTT assay is performed to determine relative survival after drug treatment as described above. MTT (3-[4,5-Dimethylthiazol-2-yl]-2,5-diphenyltetrazolium bromide; Thiazolyl blue) is purchased from Sigma Aldrich (Cat number: M5655). MTT is dissolved in sterile DPBS at the concentration of 5 mg/ml and filtered through 0.45 μM syringe filter (Corning; Cat number: 431220). Ten μl of MTT solution is added per well of 96-well plate. Plates are incubated for 2 hours at 37° C. in the humidified CO2 incubator. After 2 hours, media is aspirated using vacuum inside the biosafety hood. Purple colored crystals formed in viable cells are dissolved by adding 100 μl of Dimethyl sulfoxide (Thermo Fisher Scientific; Cat number D128-500) Plates are kept on shaker for 10 minutes for compete dissolution of crystals and absorbance is recorded at 595 nm using Bio-Rad iMark microplate reader. Data is analyzed in MICROSOFT EXCEL® software. Relative survival is calculated with respect to absorbance of control (untreated cells) to determine the effect of transfection as well as combination treatment.\n(§4) Each data set takes into account any spontaneous cell death which is observed upon transfection with Scramble siRNA; the amount of spontaneous cell death from Scramble siRNA transfection (baseline) is subtracted from the amount of cell death observed in each siRNA transfection reaction to yield a Net Percent (Net %) cell death after accounting for Scrambled siRNA-induced cell death.\nas §1, with “(double stranded)” for “(double-stranded)”\nas §2, with “added. Doxorubicin was added at a working concentration of 5.0 nM, 9.375 nM, 0.075 μM, 0.25 μM, 0.5 μM, and 0.8 μM.” for “added.”\n(§5) An MTT assay is performed to determine relative survival after drug treatment as described above. MTT (3-[4,5-Dimethylthiazol-2-yl]-2,5-diphenyltetrazolium bromide; Thiazolyl blue) is purchased from Sigma Aldrich (Cat number: M5655). MTT is dissolved in sterile DPBS at the concentration of 5 mg/ml and filtered through […] syringe filter (Corning; Cat number: 431220). Ten μl of MTT solution is added per well of 96-well plate. Plates are incubated for 2 hours at 37° C. in the humidified CO2 incubator. […]"}, "[1]": {"system": "K562 chronic myelogenous leukemia cells", "conditions": "siRNA 10 nM", "method": "as §1, §2, §3, §4\nas §1, with “(double stranded)” for “(double-stranded)”\nas §2, with “added. Doxorubicin was added at a working concentration of 5.0 nM, 9.375 nM, 0.075 μM, 0.25 μM, 0.5 μM, and 0.8 μM.” for “added.”\nas §5"}, "[2]": {"system": "SU.86.86 pancreatic cancer cells", "conditions": "Doxorubicin 5 nM, siRNA 10 nM, 24 hours post Doxorubicin treatment", "method": "as §1, §2, §3, §4\nas §1, with “(double stranded)” for “(double-stranded)”\nas §2, with “added. Doxorubicin was added at a working concentration of 5.0 nM, 9.375 nM, 0.075 μM, 0.25 μM, 0.5 μM, and 0.8 μM.” for “added.”\nas §5"}, "[3]": {"system": "JIMT1 breast cancer cells", "conditions": "Doxorubicin 0.075 μM, siRNA 10 nM, 24 hours post Doxorubicin treatment", "method": "as §1, with “(double stranded)” for “(double-stranded)”\nas §2, with “added. Doxorubicin was added at a working concentration of 5.0 nM, 9.375 nM, 0.075 μM, 0.25 μM, 0.5 μM, and 0.8 μM.” for “added.”\nas §3, with “D128-500).” for “D128-500)”\nas §4"}, "[4]": {"system": "N87 gastric carcinoma cells", "conditions": "Doxorubicin 0.8 μM, siRNA 10 nM, 72 hours post Doxorubicin treatment", "method": "as §1, with “(double stranded)” for “(double-stranded)”\nas §2, with “added. Doxorubicin was added at a working concentration of 5.0 nM, 9.375 nM, 0.075 μM, 0.25 μM, 0.5 μM, and 0.8 μM.” for “added.”\nas §3, with “D128-500).” for “D128-500)”\nas §4"}, "[5]": {"system": "AGS gastric adenocarcinoma cells", "conditions": "siRNA 10 nM", "method": "(§6) Cells are cultured and maintained at 37° C. in a humidified atmosphere containing 5% CO2 as described above. […] After 12-18 hours (Day 1), cells are transfected with Scramble or MADD siRNA at 10 nM concentration. The sequences of siRNAs (double-stranded) used are:\nas §2\nas §3, with “MTT is dissolved in sterile DPBS at the concentration of 5 mg/ml and filtered through 0.45 μM syringe filter (Corning; Cat number: 431220).” left out\nas §4\n(§7) Cells are cultured and maintained at 37° C. in a humidified atmosphere containing 5% CO2 as described above. […] After 12-18 hours (Day 1), cells are transfected with Scramble or MADD siRNA at 10 nM concentration. The sequences of siRNAs (double stranded) used are:\nas §3, with “MTT is dissolved in sterile DPBS at the concentration of 5 mg/ml and filtered through 0.45 μM syringe filter (Corning; Cat number: 431220).” left out, “D128-500).” for “D128-500)”\nas §2, with “24 h,” for “24 hours,”, “48 h” for “48 hours”"}, "[6]": {"system": "OVCAR3 ovarian cancer cells", "conditions": "siRNA 10 nM", "method": "as §1, §2, §3, §4\nas §1, with “(double stranded)” for “(double-stranded)”\nas §3, with “D128-500).” for “D128-500)”, “Relative survival is calculated with respect to absorbance of control (untreated cells) to determine the effect of transfection as well as combination treatment.” left out"}, "H522 lung cancer cells": {"system": "H522 lung cancer cells", "conditions": "Gemcitabine 8.2 nM, siRNA 10 nM, 48 hours post Gemcitabine treatment", "method": "as §1, §2, §3, §4\nas §1, with “(double stranded)” for “(double-stranded)”\nas §3, with “D128-500).” for “D128-500)”, “Relative survival is calculated with respect to absorbance of control (untreated cells) to determine the effect of transfection as well as combination treatment.” left out"}, "[7]": {"system": "PLC/PRF/5 hepatic cancer cells", "conditions": "siRNA 10 nM", "method": "as §6, §2\nas §3, with “MTT is dissolved in sterile DPBS at the concentration of 5 mg/ml and filtered through 0.45 μM syringe filter (Corning; Cat number: 431220).” left out\nas §4, §7\nas §3, with “MTT is dissolved in sterile DPBS at the concentration of 5 mg/ml and filtered through 0.45 μM syringe filter (Corning; Cat number: 431220).” left out, “D128-500).” for “D128-500)”\nas §2, with “24 h,” for “24 hours,”, “48 h” for “48 hours”"}, "[8]": {"system": "HTH7 thyroid cancer cells", "conditions": "siRNA 10 nM", "method": "as §7, §2\nas §3, with “MTT is dissolved in sterile DPBS at the concentration of 5 mg/ml and filtered through 0.45 μM syringe filter (Corning; Cat number: 431220).” left out\nas §4"}, "[9]": {"system": "8505C thyroid cancer cells", "conditions": "8505C; Cisplatin 2.5 μM; siRNA 10 nM; 48 hours post Cisplatin treatment", "method": "as §7\nas §2, with “24 h,” for “24 hours,”, “48 h” for “48 hours”\nas §3, with “MTT is dissolved in sterile DPBS at the concentration of 5 mg/ml and filtered through 0.45 μM syringe filter (Corning; Cat number: 431220).” left out\nas §4, §2"}, "[10]": {"conditions": "Doxorubicin 9.375 nM, 48 hours post Doxorubicin treatment"}, "[11]": {"conditions": "Doxorubicin 0.25 μM, 72 hours post Doxorubicin treatment"}, "[12]": {"conditions": "Doxorubicin 0.5 μM, 48 hours post Doxorubicin treatment"}, "[13]": {"conditions": "5-flurouracil 25 μM, 72 hours post 5-flurouracil treatment"}, "[14]": {"conditions": "Gemcitabine 25 nM, 48 hours post Gemcitabine treatment"}, "[15]": {"conditions": "Gemcitabine 0.1 μM, 48 hours post Gemcitabine treatment"}, "[16]": {"conditions": "Gemcitabine 1 μM, 48 hours post Gemcitabine treatment"}, "[17]": {"conditions": "Gemcitabine 0.03125 μM, 24 hours post Gemcitabine treatment"}, "[18]": {"conditions": "Cisplatin 1.25 μM, 72 hours post Cisplatin treatment"}, "[19]": {"conditions": "Cisplatin 5 μM, 24 hours post Cisplatin treatment"}, "[20]": {"conditions": "Cisplatin 1.875 μM, 24 hours post Cisplatin treatment"}}}
{"smiles": "COc1cccc2c1C(=O)c1c(O)c3c(c(O)c1C2=O)C[C@@](O)(C(=O)CO)C[C@@H]3O[C@H]1C[C@H](N)[C@H](O)[C@H](C)O1", "note": "[Doxorubicin]", "values": [{"measurement": "Net % cell death after accounting for Scrambled siRNA", "setting": "H2227 lung cancer cells; [10]", "result": 3, "unit": "%"}, {"measurement": "Observed % Cell death", "setting": "H2227 lung cancer cells; [10]", "result": 3, "unit": "%"}, {"measurement": "Net % cell death after accounting for Scrambled siRNA", "setting": "[1]; [11]", "result": 11, "unit": "%"}, {"measurement": "Observed % Cell death", "setting": "[1]; [11]", "result": 11, "unit": "%"}, {"measurement": "Net % cell death after accounting for Scrambled siRNA", "setting": "[1]; [12]", "result": 0, "unit": "%"}, {"measurement": "Observed % Cell death", "setting": "[1]; [12]", "result": 0, "unit": "%"}, {"measurement": "Net % cell death after accounting for Scrambled siRNA", "setting": "[2]", "result": 36, "unit": "%"}, {"measurement": "Observed % Cell death", "setting": "[2]", "result": 36, "unit": "%"}, {"measurement": "Net % cell death after accounting for Scrambled siRNA", "setting": "[3]", "result": 17, "unit": "%"}, {"measurement": "Observed % Cell death", "setting": "[3]", "result": 17, "unit": "%"}, {"measurement": "Net % cell death after accounting for Scrambled siRNA", "setting": "[4]", "result": 38, "unit": "%"}, {"measurement": "Observed % Cell death", "setting": "[4]", "result": 38, "unit": "%"}]}
{"smiles": "O=c1[nH]cc(F)c(=O)[nH]1", "note": "[5-flurouracil]", "values": [{"measurement": "Net % cell death after accounting for Scrambled siRNA", "setting": "[5]; [13]", "result": 22, "unit": "%"}, {"measurement": "Observed % Cell death", "setting": "[5]; [13]", "result": 22, "unit": "%"}]}
{"smiles": "Nc1ccn([C@@H]2O[C@H](CO)[C@@H](O)C2(F)F)c(=O)n1", "note": "[Gemcitabine]", "values": [{"measurement": "Net % cell death after accounting for Scrambled siRNA", "setting": "H2227 lung cancer cells; [14]", "result": 15, "unit": "%"}, {"measurement": "Observed % Cell death", "setting": "H2227 lung cancer cells; [14]", "result": 15, "unit": "%"}, {"measurement": "Observed % Cell death", "setting": "[6]; Gemcitabine 0.0125 μM, 72 hours post Gemcitabine treatment", "result": 19, "unit": "%"}, {"measurement": "Net % cell death after accounting for Scrambled siRNA", "setting": "[6]; [15]", "result": 28, "unit": "%"}, {"measurement": "Observed % Cell death", "setting": "[6]; [15]", "result": 28, "unit": "%"}, {"measurement": "Net % cell death after accounting for Scrambled siRNA", "setting": "H522 lung cancer cells", "result": 4, "unit": "%"}, {"measurement": "Observed % Cell death", "setting": "H522 lung cancer cells", "result": 4, "unit": "%"}, {"measurement": "Net % cell death after accounting for Scrambled siRNA", "setting": "[5]; [16]", "result": 38, "unit": "%"}, {"measurement": "Observed % Cell death", "setting": "[5]; [16]", "result": 38, "unit": "%"}, {"measurement": "Net % cell death after accounting for Scrambled siRNA", "setting": "[7]; [17]", "result": 1, "unit": "%"}, {"measurement": "Observed % Cell death", "setting": "[7]; [17]", "result": 1, "unit": "%"}]}
{"smiles": "N.N.[Cl][Pt][Cl]", "note": "[Cisplatin]", "values": [{"measurement": "Net % cell death after accounting for Scrambled siRNA", "setting": "[8]; [18]", "result": 0, "unit": "%"}, {"measurement": "Observed % Cell death", "setting": "[8]; [18]", "result": 0, "unit": "%"}, {"measurement": "Net % cell death after accounting for Scrambled siRNA", "setting": "[8]; [19]", "result": 13, "unit": "%"}, {"measurement": "Observed % Cell death", "setting": "[8]; [19]", "result": 13, "unit": "%"}, {"measurement": "Net % cell death after accounting for Scrambled siRNA", "setting": "[9]", "result": 19, "unit": "%"}, {"measurement": "Observed % Cell death", "setting": "[9]", "result": 19, "unit": "%"}, {"measurement": "Net % cell death after accounting for Scrambled siRNA", "setting": "[7]; [20]", "result": 41, "unit": "%"}, {"measurement": "Observed % Cell death", "setting": "[7]; [20]", "result": 41, "unit": "%"}]}
